In the assay the target is HPK1 (MAP4K1) (Homo sapiens, UniProt Q92918). Description: FRET Assay for HPK1 (MAP4K1): one step binding assay, displacement of labeled tracer. Conditions: for inhibition at 1 µM: 1 μM compound; for inhibition at 1 µM / inhibition at 10 µM: FRET ratio 665/620, percent of control; for inhibition at 10 µM: 10 μM compound; for IC50: dose response curve, nonlinear regression. Summed up: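 TR-FRET tracer-displacement binding assay. GST-tagged HPK1 (10 nM) and Eu-anti-GST antibody (4 nM) were pre-incubated with compound on ice for 15 min in 50 mM HEPES pH 7.5, 10 mM MgCl2, 1 mM EGTA, 0.01% Brij-35 (3% DMSO final). Kinase Tracer 222 (20 nM) was then added for 1 h at room temperature. IC50 came from nonlinear regression of percent of control; percent inhibition was also given at 1.0 and 10.0 μM.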
Sequence of HPK1 (MAP4K1) (Q92918 whole entry): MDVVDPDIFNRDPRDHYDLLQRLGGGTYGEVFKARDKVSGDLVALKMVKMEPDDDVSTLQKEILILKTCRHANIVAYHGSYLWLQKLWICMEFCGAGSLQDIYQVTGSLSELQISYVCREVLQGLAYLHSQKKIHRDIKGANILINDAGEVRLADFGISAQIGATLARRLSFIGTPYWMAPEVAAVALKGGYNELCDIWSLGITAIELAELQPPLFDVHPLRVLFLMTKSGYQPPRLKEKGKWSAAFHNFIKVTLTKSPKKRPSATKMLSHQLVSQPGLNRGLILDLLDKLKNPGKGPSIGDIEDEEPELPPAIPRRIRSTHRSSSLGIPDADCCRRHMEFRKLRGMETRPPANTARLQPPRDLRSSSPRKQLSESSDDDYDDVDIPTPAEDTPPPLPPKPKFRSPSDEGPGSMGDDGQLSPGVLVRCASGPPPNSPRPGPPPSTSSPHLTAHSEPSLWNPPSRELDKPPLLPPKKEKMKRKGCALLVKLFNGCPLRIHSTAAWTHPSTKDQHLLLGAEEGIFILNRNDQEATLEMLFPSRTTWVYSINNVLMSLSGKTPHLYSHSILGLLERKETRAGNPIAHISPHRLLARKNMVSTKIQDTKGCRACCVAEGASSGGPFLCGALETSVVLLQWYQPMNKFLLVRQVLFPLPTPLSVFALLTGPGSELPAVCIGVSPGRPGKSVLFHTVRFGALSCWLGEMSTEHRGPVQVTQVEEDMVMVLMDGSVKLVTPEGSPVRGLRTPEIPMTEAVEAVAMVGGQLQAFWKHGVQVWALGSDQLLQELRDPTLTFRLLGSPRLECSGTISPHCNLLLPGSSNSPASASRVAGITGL

As for `C/C(Nc1cc(C)n(CC(C)(C)O)n1)=C1/C(=O)Nc2cnc(-c3cnccc3C)cc21` [Example 181, (Z)-3-(1-((1-(2-Hydroxy-2-methylpropyl)-5-methyl-1H-pyrazol-3-yl)amino)ethylidene)-5-(4-methylpyridin-3-yl)-1H-pyrrolo[2,3-c]pyridin-2(3H)-one], the inhibition at 1 µM amounted to 76.8%, the inhibition at 10 µM amounted to 80.8% and the IC50 is under 50 nM.
Turning to `COc1cccc(F)c1-c1ccc2c(c1)/C(=C(\C)Nc1ccc(N3CCN(C4COC4)CC3)nc1)C(=O)N2` [Example 4, (Z)-5-(2-Fluoro-6-methoxyphenyl)-3-(1-((6-(4-(oxetan-3-yl)piperazin-1-yl)pyridin-3-yl)amino)ethylidene)indolin-2-one], the inhibition at 1 µM is 90.1%, the inhibition at 10 µM stood at 91% and the IC50 is under 50 nM.
The matching figures for `C/C(Nc1ccn(CC[C@@H](C)O)n1)=C1/C(=O)Nc2cnc(-c3cnccc3C)cc21` [Example 169, (R,Z)-3-(1-((1-(3-Hydroxybutyl)-1H-pyrazol-3-yl)amino)ethylidene)-5-(4-methylpyridin-3-yl)-1H-pyrrolo[2,3-c]pyridin-2(3H)-one]: 71.4%, 84.3% and under 50 nM.
In the case of `C/C(Nc1ccc(N2CCNCC2)cn1)=C1/C(=O)Nc2cnc(-c3cnccc3C)cc21` [Example 74, (Z)-5-(4-Methylpyridin-3-yl)-3-(1-((5-(piperazin-1-yl)pyridin-2-yl)amino)ethylidene)-1H-pyrrolo[2,3-c]pyridin-2(3H)-one], the inhibition at 1 µM is 76.3% and the IC50 is under 50 nM.
As for `COc1cccc(F)c1-c1cc2c(cn1)NC(=O)/C2=C(/C)Nc1ccn(C)n1` [Example 28, (Z)-5-(2-Fluoro-6-methoxyphenyl)-3-(1-((1-methyl-1H-pyrazol-3-yl)amino)ethylidene)-1H-pyrrolo[2,3-c]pyridin-2(3H)-one], the inhibition at 1 µM came to 84.8%, the inhibition at 10 µM stood at 89.4% and the IC50 was under 50 nM.
On to `C/C(Nc1ccc(N2CCNCC2)nc1)=C1/C(=O)Nc2cnc(-c3cnccc3C)cc21` [Example 46, (Z)-5-(4-Methylpyridin-3-yl)-3-(1-((6-(piperazin-1-yl)pyridin-3-yl)amino)ethylidene)-1H-pyrrolo[2,3-c]pyridin-2(3H)-one], for which the inhibition at 1 µM was determined as 85.3%, the inhibition at 10 µM stood at 87.3% and the IC50 was under 50 nM.
Consider `C/C(Nc1ccn(C)n1)=C1/C(=O)Nc2cnc(-c3c(C)cccc3F)cc21` [Example 121, (Z)-5-(2-Fluoro-6-methylphenyl)-3-(1-((1-methyl-1H-pyrazol-3-yl)amino)ethylidene)-1H-pyrrolo[2,3-c]pyridin-2(3H)-one], for which the inhibition at 1 µM was determined as 78.9%, the inhibition at 10 µM was determined as 85.7% and the IC50 was under 50 nM.
In the case of `COc1ccncc1-c1cc2c(cn1)NC(=O)/C2=C(/C)Nc1ccn(C(C)(C)C#N)n1` [Example 95, (Z)-2-(3-((1-(5-(4-Methoxypyridin-3-yl)-2-oxo-1H-pyrrolo[2,3-c]pyridin-3(2H)-ylidene)ethyl)amino)-1H-pyrazol-1-yl)-2-methylpropanenitrile], the inhibition at 1 µM turned out to be 75.5%, the inhibition at 10 µM amounted to 75.7% and the 50% inhibitory concentration (IC50) is under 50 nM.
For the compound `COc1cccc(F)c1-c1ccc2c(c1)/C(=C(\C)Nc1ccc(N3CCN(C)CC3)cc1)C(=O)N2` [Example 2, (Z)-5-(2-Fluoro-6-methoxyphenyl)-3-(1-((4-(4-methylpiperazin-1-yl)phenyl)amino)ethylidene)indolin-2-one], the inhibition at 1 µM is 88.6%, the inhibition at 10 µM amounted to 82.5% and the IC50 was under 50 nM.
The matching figures for `C/C(Nc1cn(C)nc1C)=C1/C(=O)Nc2cnc(-c3cnccc3C)cc21` [Example 135, (Z)-3-(1-((1,3-Dimethyl-1H-pyrazol-4-yl)amino)ethylidene)-5-(4-methylpyridin-3-yl)-1H-pyrrolo[2,3-c]pyridin-2(3H)-one]: 78.5%, 83.9% and 50 to 100 nM.
For `CN/C(=C1\C(=O)Nc2ccc(-c3c(F)cccc3OC)cc21)c1ccccc1` [Example 1, 5-(2-fluoro-6-methoxyphenyl)-3-((methylamino)(phenyl)methylene)indolin-2-one], the inhibition at 1 µM is 69.8%, the inhibition at 10 µM is 84% and the IC50 lay in the range of 100 to 500 nM.
Regarding `COCCn1cc(N/C(C)=C2\C(=O)Nc3cnc(-c4c(F)cccc4OC)cc32)cn1` [Example 39, (Z)-5-(2-Fluoro-6-methoxyphenyl)-3-(1-((1-(2-methoxyethyl)-1H-pyrazol-4-yl)amino)ethylidene)-1H-pyrrolo[2,3-c]pyridin-2(3H)-one], the inhibition at 1 µM is 72.2%, the inhibition at 10 µM amounted to 86.6% and the IC50 is under 50 nM.
In the case of `COc1cccc(F)c1-c1cc2c(cn1)NC(=O)/C2=C(/C)Nc1ccc(N(C)C)nc1` [Example 117, (Z)-3-(1-((6-(Dimethylamino)pyridin-3-yl)amino)ethylidene)-5-(2-fluoro-6-methoxyphenyl)-1H-pyrrolo[2,3-c]pyridin-2(3H)-one], the inhibition at 1 µM was 54.8% and the inhibition at 10 µM was determined as 56.4%.
In the case of `CC/C(Nc1cnn(C(C)(C)C#N)c1)=C1/C(=O)Nc2cnc(-c3cnccc3C)cc21` [Example 91, (Z)-2-Methyl-2-(4-((1-(5-(4-methylpyridin-3-yl)-2-oxo-1H-pyrrolo[2,3-c]pyridin-3(2H)-ylidene)propyl)amino)-1H-pyrazol-1-yl)propanenitrile], the inhibition at 1 µM amounted to 79.7% and the IC50 was under 50 nM.
For the compound `C/C(Nc1ccn(C2CCN(C3COC3)CC2)n1)=C1/C(=O)Nc2cnc(-c3cnccc3C)cc21` [Example 147, (Z)-5-(4-Methylpyridin-3-yl)-3-(1-((1-(1-(oxetan-3-yl)piperidin-4-yl)-1H-pyrazol-3-yl)amino)ethylidene)-1H-pyrrolo[2,3-c]pyridin-2(3H)-one], the inhibition at 1 µM turned out to be 74.9%, the inhibition at 10 µM worked out at 75.9% and the IC50 is under 50 nM.
Consider `C/C(Nc1ccn(C)n1)=C1/C(=O)Nc2cnc(-c3cncc(F)c3C)cc21` [Example 154, (Z)-5-(5-Fluoro-4-methylpyridin-3-yl)-3-(1-((1-methyl-1H-pyrazol-3-yl)amino)ethylidene)-1H-pyrrolo[2,3-c]pyridin-2(3H)-one], for which the inhibition at 1 µM came out at 69%, the inhibition at 10 µM turned out to be 82.5% and the IC50 is 100 to 500 nM.
Take `C/C(Nc1cc(C)n(C)n1)=C1/C(=O)Nc2cnc(-c3cnccc3C)cc21` [Example 129, (Z)-3-(1-((1,5-dimethyl-1H-pyrazol-3-yl)amino)ethylidene)-5-(4-methylpyridin-3-yl)-1H-pyrrolo[2,3-c]pyridin-2(3H)-one]: the inhibition at 1 µM was 76.4%, the inhibition at 10 µM was determined as 82.2% and the IC50 is under 50 nM.
In the case of `C/C(Nc1cc(C)n(CC(C)(C)O)n1)=C1/C(=O)Nc2cnc(-c3c(C)cccc3F)cc21` [Example 200, (Z)-5-(2-Fluoro-6-methylphenyl)-3-(1-((1-(2-hydroxy-2-methylpropyl)-5-methyl-1H-pyrazol-3-yl)amino)ethylidene)-1H-pyrrolo[2,3-c]pyridin-2(3H)-one], the inhibition at 1 µM stood at 70.7%, the inhibition at 10 µM came to 71.9% and the IC50 is under 50 nM.
As for `C/C(Nc1cnn(C)c1)=C1/C(=O)Nc2cnc(-c3cnccc3C)cc21` [Example 23, (Z)-3-(1-((1-methyl-1H-pyrazol-4-yl)amino)ethylidene)-5-(4-methylpyridin-3-yl)-1H-pyrrolo[2,3-c]pyridin-2(3H)-one], the inhibition at 1 µM was 84.6%, the inhibition at 10 µM came out at 87% and the IC50 was under 50 nM.
For `CCS(=O)(=O)n1nc(N/C(C)=C2\C(=O)Nc3cnc(-c4cnccc4C)cc32)cc1C` [Example 180, (Z)-3-(1-((1-(Ethylsulfonyl)-5-methyl-1H-pyrazol-3-yl)amino)ethylidene)-5-(4-methylpyridin-3-yl)-1H-pyrrolo[2,3-c]pyridin-2(3H)-one], the inhibition at 1 µM stood at 73%, the inhibition at 10 µM was found to be 76.2% and the IC50 is under 50 nM.
Regarding `C/C(Nc1ccn(CCC(C)(C)O)n1)=C1/C(=O)Nc2cnc(-c3cnccc3C)cc21` [Example 111], the inhibition at 1 µM is 74.4%, the inhibition at 10 µM was 74.3% and the half-inhibitory concentration (IC50) was under 50 nM.
As to `C/C(Nc1cc(C)n(C[C@@H](C)O)n1)=C1/C(=O)Nc2cnc(-c3c(C)cccc3F)cc21` [Example 216, (R,Z)-5-(2-Fluoro-6-methylphenyl)-3-(1-((1-(2-hydroxypropyl)-5-methyl-1H-pyrazol-3-yl)amino)ethylidene)-1H-pyrrolo[2,3-c]pyridin-2(3H)-one], the inhibition at 1 µM worked out at 72.1%, the inhibition at 10 µM turned out to be 68.6% and the IC50 is under 50 nM.
The matching figures for `CC/C(Nc1ccn(C(C)(C)C#N)n1)=C1/C(=O)Nc2cnc(-c3cnccc3C)cc21` [Example 92, (Z)-2-Methyl-2-(3-((1-(5-(4-methylpyridin-3-yl)-2-oxo-1H-pyrrolo[2,3-c]pyridin-3(2H)-ylidene)propyl)amino)-1H-pyrazol-1-yl)propanenitrile]: 77%, 80.3% and under 50 nM.
For `COc1ccncc1-c1cc2c(cn1)NC(=O)/C2=C(/C)Nc1cnn(C)c1` [Example 33, (Z)-5-(4-methoxypyridin-3-yl)-3-(1-((1-methyl-1H-pyrazol-4-yl)amino)ethylidene)-1H-pyrrolo[2,3-c]pyridin-2(3H)-one], the inhibition at 1 µM amounted to 91.6%, the inhibition at 10 µM was determined as 87.8% and the IC50 was under 50 nM.

(Values after patent US20230009626A1 (ICHNOS SCIENCES S.A., priority 2018, published 2023).)
